The subject of the assay is PO3. In words: Antitumor activity in mouse PO3 cells xenografted mouse at 304.5 mg/kg after 31 days. The assay is classed as functional, organism-based. More on the design: dose 304.5 mg/kg.

SMILES strings stand for the structures. Activity calls are given as the source filed them. The calls are words filed in the database; no cut-off is given here.

For the compound `CC/C=C/[C@]1(CC)C[C@@H](CC)[C@H](CC(=O)OCC)OO1`, the result was inactive.

The values above are taken from ChEMBL document CHEMBL1150934, “Cyclic polyketide peroxides and acyclic diol analogues from the sponge Plakortis lita” (J Nat Prod, 1998).
